# Measured values published in patent US9255132B2, “Angiopoietin derived peptides” (Compugen Ltd., priority 2008, dated 2016).
# Residues, ends and D or L forms follow the SMILES beside them.
# Experiments:
# [1] = tested on: avian chorioallantoic membrane (CAM); assay type: in vivo, Leghorn fertilized eggs; conditions: for inhibition of vessel length: peptide 0.5 and 5 nmol/CAM, 48 h after treatment, vs vehicle control
# Description: CGEN-G6 [SEQ ID NO: 6], CGEN-F9 [SEQ ID NO: 7], CGEN-F12 [SEQ ID NO: 8], CGEN-C6 [SEQ ID NO: 9], CGEN-A11 [SEQ ID NO: 10], and CGEN-G2 [SEQ ID NO: 11], were analyzed for their ability to affect angiogenesis using the in ovo avian chorioallantoic membrane (CAM) model of angiogenesis, which is widely used as a model to examine compounds affecting angiogenesis (Richardson and Singh 2003, Curr Drug Targets Cardiovasc Haematol Disord., 3(2):155-85). Two positive controls were used: fumagillin as a general anti-angiogenic compound, and Tie2 neutralizing antibody as anti-angiogenic inhibitor of the Ang/Tie2 pathway. Leghorn fertilized eggs were incubated for 4 days at 37° C., when a window was opened on the egg's shell, exposing the CAM. Two different doses of peptides (0.5 and 5 nmol/CAM), Tie-2 neutralizing antibody (R&D Systems, Cat#AF313, 10 μg/ml; 0.4 μg/CAM) or fumagillin (Tocris Bioscience, Cat #1768; 5 μg/CAM) were applied in a 40 μl volume inside an area of 1 cm^2 (restricted by a plastic ring) of the CAM on day 9 of embryo development. The appropriate vehicle controls were also tested. Forty-eight hours after treatment and subsequent incubation at 37° C., CAMs were fixed in situ, excised from the eggs, placed on slides and left to air-dry. Pictures were taken through a stereoscope equipped with a digital camera and the total length of the vessels was measured using image analysis software (NIH Image). For each group a total of 17-24 eggs from three different experiments were used. Data are presented as means±SEM and expressed as % of vehicle control. Statistical analysis (ANOVA followed by Dunnett's post-hoc test) was performed using Graph Pad.
# FIG. 6 depict results obtained on vessel length with peptides CGEN-G6 [SEQ ID NO: 6], CGEN-F9 [SEQ ID NO: 7], CGEN-F12 [SEQ ID NO: 8], CGEN-C6 [SEQ ID NO: 9], CGEN-A11 [SEQ ID NO: 10], and CGEN-G2 [SEQ ID NO: 11], compared to Tie2 neutralizing antibody (Ab) and the anti-angiogenic compound fumagillin. Neutralizing Tie2 Ab blocked vessel length by 36%, while the angiogenesis inhibitor fumagillin blocked vessel length by 32%.
# [2] = tested on: oxygen-induced retinopathy (OIR); assay: Rodent model of oxygen-induced retinopathy (OIR); assay type: in vivo, Sprague Dawley rats; conditions: for inhibition of pre-retinal neovascular growth (pathological angiogenesis): relative to PBS-injected eyes, P20
# Excerpt: In order to assess the in viva efficacy of CGEN-A 11 [SEQ ID NO: 10] in a disease model of angiogenesis, a rodent model of oxygen-induced retinopathy (OIR) was used. Sprague Dawley rats were raised from birth through day PI4 in a variable oxygen atmosphere consisting of 24-hour alternating cycles of 50% and 10% oxygen. Rats were predisposed to pathological retinal angiogenesis as a result of oxygen treatment. Upon removal from the oxygen exposure chamber on day P14, rats received intravitreal injections of CGEN-A11 [SEQ ID NO: 10] in one of two doses: 15 μg/ml (low) or 75 μg/ml (high), 100 μg/ml recombinant rat Tie-2/Fc (R&D Systems, 3874-T2) or 100 μg/ml anti-VEGFR2 (Sigma, V1014) as positive controls, a combination of CGEN-A11 [SEQ ID NO: 10] at 30 μg/ml and anti-VEGFR2 (100 μg/ml), or vehicle (PBS) at a volume of 5 μl. An additional similar intravitreal administration took place 3 days later, on day P17. All pups were sacrificed on day P20. Both normal, intra-retinal vascular growth and abnormal, pre-retinal neovascular growth were assessed at six days post-exposure (P20) in ADPase-stained retinal flat-mounts, using widely published methods (e.g. Penn J S et al., 1991, Invest Ophthalmol Vis Sci. 32(4):1147; MicLeod D S et al., 1987, Microvasc Res. 33:257-269). All assessments were performed by a single, highly trained observer, who was blinded to treatment group. Areas of normal and abnormal vascular growth were measured via computer-assisted image analysis using high-resolution digital images of the stained retinal flat-mounts. The data were subjected to analysis of variance to determine statistical significance and a Dunnett's post hoc test to identify how the various treatment groups compared.
# Data are depicted using percent total retinal area vascularized. Sample sizes (10, 11 or 12) are indicated on each bar. […] These differences yielded statistical significance, both at p<0.0001. Statistical significance was calculated using area (mm^2) measurements.
# Data are depicted as area vascularized (mm^2). Sample sizes (10, 11 or 12) are indicated on each bar.
Structure (SMILES),"inhibition of vessel length, rank among peptides ([1]; 5 nmole)",inhibition of pre-retinal neovascular growth (pathological angiogenesis) ([2]; intravitreal 15 μg/ml) [%],"intra-retinal normal vascular growth compared to PBS control ([2]; intravitreal 75 μg/ml, 5 μl, P14 and P17, assessed P20, p<0.0001)","inhibition of pre-retinal neovascular growth (pathological angiogenesis) ([2]; intravitreal 75 μg/ml, p=0.0126) [%]",inhibition of vessel length [1]
"CC(=O)N[C@@H](CCC(=O)O)C(=O)N[C@H](C(=O)N[C@@H](Cc1ccccc1)C(=O)N[C@@H](CC(C)C)C(=O)N[C@@H](CO)C(=O)N[C@H](C(=O)N[C@@H](CC(N)=O)C(=O)N[C@@H](CCCCN)C(=O)N[C@@H](CC(C)C)C(=O)N[C@@H](CCC(=O)O)C(=O)N[C@@H](CC(N)=O)C(=O)N[C@@H](CCC(N)=O)C(N)=O)[C@@H](C)O)[C@@H](C)O [CGEN-A11, ETFLSTNKLENQ] (Ac-ETFLSTNKLENQ-NH2)",greatest effect,38.9,statistically significant increase,76.4,–
CC[C@H](C)[C@H](NC(=O)[C@H](C)NC(=O)[C@H](CCCNC(=N)N)NC(=O)[C@H](CCC(=O)O)NC(=O)[C@H](CC(C)C)NC(=O)[C@H](CCCCN)NC(=O)[C@H](CCCCN)NC(=O)[C@H](CC(C)C)NC(=O)[C@H](Cc1c[nH]c2ccccc12)NC(=O)[C@H](CCC(N)=O)NC(=O)[C@@H](NC(=O)[C@H](CC(N)=O)NC(=O)[C@H](CC(N)=O)NC(=O)[C@H](CCC(N)=O)NC(=O)[C@H](CC(C)C)NC(=O)[C@H](C)NC(=O)[C@H](CCC(N)=O)NC(=O)[C@H](CCC(=O)O)NC(=O)[C@H](CC(C)C)NC(=O)[C@H](CCC(N)=O)NC(=O)[C@H](CCCCN)NC(=O)[C@@H](NC(=O)[C@H](CCC(N)=O)NC(=O)[C@H](CCC(N)=O)NC(=O)[C@@H](NC(C)=O)[C@@H](C)O)C(C)C)[C@@H](C)O)C(=O)N[C@@H](CCCCN)C(=O)N[C@H](C(=O)N[C@H](C(=O)N[C@@H](CC(C)C)C(N)=O)[C@@H](C)CC)[C@@H](C)O [CGEN-G2] (Ac-TQQVKQLEQALQNNTQWLKKLERAIKTIL-NH2),–,–,–,–,did not inhibit angiogenesis
CSCC[C@H](NC(=O)[C@H](CC(C)C)NC(=O)[C@H](CC(=O)O)NC(C)=O)C(=O)N[C@@H](CCC(=O)O)C(=O)N[C@H](C(=O)N[C@H](C(=O)N[C@@H](CC(N)=O)C(=O)N[C@@H](CC(N)=O)C(=O)N[C@@H](CC(C)C)C(=O)N[C@@H](CC(C)C)C(=O)N[C@H](C(=O)N[C@@H](CCSC)C(=O)N[C@@H](CCSC)C(=O)N[C@@H](CO)C(=O)N[C@H](C(=O)N[C@@H](CO)C(=O)N[C@@H](CC(N)=O)C(=O)N[C@@H](CO)C(=O)N[C@@H](C)C(=O)N[C@@H](CCCCN)C(=O)N[C@@H](CC(=O)O)C(N)=O)[C@@H](C)O)[C@@H](C)O)C(C)C)[C@@H](C)O [CGEN-G6] (Ac-DLMETVNNLLTMMSTSNSAKD-NH2),–,–,–,–,did not inhibit angiogenesis
